# Test results reported in patent US10995064B2, “Sulfamoyl-arylamides and the use thereof as medicaments for the treatment of hepatitis B” (priority 2012, dated 2021).
# What was measured:
# HBV [1] = assay: anti HBV activity, HepG2.117 inducible (Tet-off) cell line, intracellular HBV DNA by realtime PCR; type: cell-based; conditions: HepG2.117 cells, 3 days of treatment
# HBV [2] = assay: anti-HBV activity, HepG2.2.15 stable transfected cell line, HBV DNA from secreted virions by realtime PCR; type: cell-based; conditions: HepG2.2.15 cells, 6 days of treatment, secreted virion HBV DNA
# HepG2 cells [3] = assay: Cytotoxicity in HepG2 cells, 4 days, Resazurin assay; conditions: read-out: HepG2 4 days CC50, 4 days, Resazurin
# HepG2 cells [4] = assay: Cytotoxicity in HepG2 cells using CellTiter-Blue; type: cell-based; conditions: 6 days
# [5] = Cytotoxicity in HepG2 cells, 4 days, Resazurin assay; conditions: human
Structure (SMILES),EC50 (HBV [2]) [µM],CC50 (HepG2 cells [3]) [µM],other results
COC(=O)N1CCCC(NS(=O)(=O)c2cccc(C(=O)Nc3ccc(F)c(C)c3)c2)C1 (racemic) [Compound 159],,,"EC50 (HBV [1]; Hepatitis B virus, 72 h): 0.3 µM"
COC(=O)N1CCCC(NS(=O)(=O)c2cccc(C(=O)Nc3ccc(F)c(C)c3)c2)C1 (racemic) [Compound 159a],0.17,,EC50 (HBV [1]): 0.86 µM
COC(=O)N1CCCC(NS(=O)(=O)c2cccc(C(=O)Nc3ccc(F)c(C)c3)c2)C1 (racemic) [Compound 159b],0.16,,EC50 (HBV [1]): 0.23 µM
Cc1cc(NC(=O)c2cccc(S(=O)(=O)NC3CC(=O)N(C)C3)c2)ccc1F (racemic) [Compound 179],,,"EC50 (HBV [2]; Hepatitis B virus, 144 h): 0.21 µM; EC50 (HBV [1]; Hepatitis B virus, 72 h): 0.44 µM"
Cc1cc(NC(=O)c2cccc(S(=O)(=O)NC3CC(=O)N(C)C3)c2)ccc1F (racemic) [Compound 179a],0.38,> 25,EC50 (HBV [1]): 0.25 µM
Cc1cc(NC(=O)c2cccc(S(=O)(=O)NC3CC(=O)N(C)C3)c2)ccc1F (racemic) [Compound 179b],1.11,> 25,EC50 (HBV [1]): 1.84 µM
"Cc1cc(NC(=O)c2cccc(S(=O)(=O)N[C@@H]3CCC[C@H](O)C3)c2)ccc1F (single isomer, unassigned) [Compound 134b, N-(4-fluoro-3-methyl-phenyl)-3-[[(1R,3S)-3-hydroxycyclohexyl]sulfamoyl]benzamide or N-(4-fluoro-3-methyl-phenyl)-3-[[(1S,3R)-3-hydroxycyclohexyl]sulfamoyl]benzamide]",,,EC50 (HBV [1]): 0.2 µM
"Cc1cc(NC(=O)c2cccc(S(=O)(=O)N[C@H]3Cc4ccccc4[C@@H]3O)c2)ccc1F (single isomer, unassigned) [Compound 141a, N-(4-fluoro-3-methyl-phenyl)-3-[[(1S,2S)-1-hydroxyindan-2-yl]-sulfamoyl]benzamide or N-(4-fluoro-3-methyl-phenyl)-3-[[(1R,2R)-1-hydroxyindan-2-yl]sulfamoyl]benzamide]",0.7,> 25,
"Cc1cc(NC(=O)c2cccc(S(=O)(=O)N[C@H]3Cc4ccccc4[C@H]3O)c2)ccc1F (single isomer, unassigned) [Compound 141b, N-(4-fluoro-3-methyl-phenyl)-3-[[(1R,2S)-1-hydroxyindan-2-yl]sulfamoyl]benzamide or N-(4-fluoro-3-methyl-phenyl)-3-[[(1S,2R)-1-hydroxyindan-2-yl]sulfamoyl]benzamide]",,> 25,
"Cc1cc(NC(=O)c2cccc(S(=O)(=O)N[C@@H]3CC[C@H](O)C3)c2)ccc1F (single isomer, unassigned) [Compound 145a, N-(4-fluoro-3-methyl-phenyl)-3-[[(1R,3S)-3-hydroxycyclopentyl]sulfamoyl]benzamide or N-(4-fluoro-3-methyl-phenyl)-3-[[(1S,3R)-3-hydroxycyclopentyl]sulfamoyl]benzamide]",,> 25,
"Cc1cc(NC(=O)c2cccc(S(=O)(=O)N[C@H]3CC[C@H](O)C3)c2)ccc1F (single isomer, unassigned) [Compound 145c, N-(4-fluoro-3-methyl-phenyl)-3-[[(1S,3S)-3-hydroxycyclopentyl]-sulfamoyl]benzamide or N-(4-fluoro-3-methyl-phenyl)-3-[[(1R,3R)-3-hydroxycyclopentyl]sulfamoyl]benzamide]",,> 25,
"Cc1cc(NC(=O)c2cccc(S(=O)(=O)N[C@H]3CC[C@H](O)C3)c2)ccc1F (single isomer, unassigned) [Compound 145d, N-(4-fluoro-3-methyl-phenyl)-3-[[(1S,3S)-3-hydroxycyclopentyl]-sulfamoyl]benzamide or N-(4-fluoro-3-methyl-phenyl)-3-[[(1R,3R)-3-hydroxycyclopentyl]sulfamoyl]benzamide]",0.4,,
CC1(NS(=O)(=O)c2cccc(C(=O)Nc3ccc(F)cc3)c2)COC1 [Compound 4],,> 100,"EC50 (HBV [2]; Hepatitis B virus, 144 h): 0.96 µM; EC50 (HBV [1]; Hepatitis B virus, 72 h): 0.93 µM"
O=C(Nc1ccccc1)c1cc(S(=O)(=O)N2CCCCC2)c(Cl)cc1Cl [Compound 20],,79.6,
Cc1ccccc1NC(=O)c1cccc(S(=O)(=O)NC2CCCCC2)c1 [Compound 34],,,"EC50 (HBV [2]; Hepatitis B virus, 144 h): 4.18 µM; CC50 (HepG2 cells [4]): > 25 µM"
O=C(Nc1ccc(F)cc1)c1cc(S(=O)(=O)N2CCCCC2)cs1 [Compound 61],,35.7,
CC1(NS(=O)(=O)c2cccc(C(=O)Nc3ccc(F)cc3)c2)CCOCC1 [Compound 83],,,CC50 at 4 days [5]: > 25 µM
Cc1cc(NC(=O)c2cccc(S(=O)(=O)NC3CCCC(O)C3)c2)ccc1F (centres unmarked) [Compound 134],,,"EC50 (HBV [2]; Hepatitis B virus, 144 h): 0.18 µM"
